For two compounds, IC50 results are on record in patent US20090118336A1, “PYRAZOLE DERIVATIVES AND THEIR USE AS PI3K INHIBITORS” (priority 2006, published 2009).

The target of one experiment is T1, p110α Type Ia human PI3K (Homo sapiens, UniProt P42336).
T1 construct: full length DNA of each of the p110α, p110β and p110δ Type Ia human PI3K p110 isoforms; 6-His; made in house
The experiment in a line: In vitro PI3K enzyme assay (AlphaScreen), Test (a). As to conditions: recombinant enzyme, PI(4,5)P2 substrate, ATP 4 μM, read-out: IC50 versus p110α Type Ia human PI3K. In kind it is biochemical. The source says: (a) In Vitro PI3K Enzyme Assay
The assay used AlphaScreen technology (Gray et al., Analytical Biochemistry, 2003, 313: 234-245) to determine the ability of test compounds to inhibit phosphorylation by recombinant Type I PI3K enzymes of the lipid PI(4,5)P2.
DNA fragments encoding human PI3K catalytic and regulatory subunits were isolated from cDNA libraries using standard molecular biology and PCR cloning techniques. The selected DNA fragments were used to generate baculovirus expression vectors. In particular, full length DNA of each of the p110α, p110β and p110δ Type Ia human PI3K p110 isoforms (EMBL Accession Nos. HSU79143, S67334, Y10055 for p110α, p110β and p110δ respectively) were sub-cloned into a pDEST10 vector (Invitrogen Limited, Fountain Drive, Paisley, UK). The vector is a Gateway-adapted version of Fastbac1 containing a 6-His epitope tag. […]
Biotinylated-DiC8-PI(3,4,5)P3 ([…]; Cell Signals Inc., Catalogue No. 107), recombinant purified GST-Grp1 PH protein (2.5 nM) and AlphaScreen Anti-GST donor and acceptor beads (100 ng; Packard Bioscience Limited, Station Road, Pangbourne, Berkshire, UK, Catalogue No. 6760603M) were added and the assay plates were left for about 5 to 20 hours at room temperature in the dark. The resultant signals arising from laser light excitation at 680 nm were read using a Packard AlphaQuest instrument. […]

The target of experiment [1] is mTOR PI kinase-related kinase (Homo sapiens, UniProt P42345). The experiment in a line: In vitro mTOR PI kinase-related kinase assay (AlphaScreen), Test (b). The class given is biochemical. Conditions: recombinant mTOR (1362-2549), ATP 20 μM, read-out: IC50 versus mTOR PI kinase-related kinase. On the procedure: (b) In Vitro mTOR PI Kinase-Related Kinase Assay
mTOR PI kinase-related kinase, sequence (P42345 1362-2549): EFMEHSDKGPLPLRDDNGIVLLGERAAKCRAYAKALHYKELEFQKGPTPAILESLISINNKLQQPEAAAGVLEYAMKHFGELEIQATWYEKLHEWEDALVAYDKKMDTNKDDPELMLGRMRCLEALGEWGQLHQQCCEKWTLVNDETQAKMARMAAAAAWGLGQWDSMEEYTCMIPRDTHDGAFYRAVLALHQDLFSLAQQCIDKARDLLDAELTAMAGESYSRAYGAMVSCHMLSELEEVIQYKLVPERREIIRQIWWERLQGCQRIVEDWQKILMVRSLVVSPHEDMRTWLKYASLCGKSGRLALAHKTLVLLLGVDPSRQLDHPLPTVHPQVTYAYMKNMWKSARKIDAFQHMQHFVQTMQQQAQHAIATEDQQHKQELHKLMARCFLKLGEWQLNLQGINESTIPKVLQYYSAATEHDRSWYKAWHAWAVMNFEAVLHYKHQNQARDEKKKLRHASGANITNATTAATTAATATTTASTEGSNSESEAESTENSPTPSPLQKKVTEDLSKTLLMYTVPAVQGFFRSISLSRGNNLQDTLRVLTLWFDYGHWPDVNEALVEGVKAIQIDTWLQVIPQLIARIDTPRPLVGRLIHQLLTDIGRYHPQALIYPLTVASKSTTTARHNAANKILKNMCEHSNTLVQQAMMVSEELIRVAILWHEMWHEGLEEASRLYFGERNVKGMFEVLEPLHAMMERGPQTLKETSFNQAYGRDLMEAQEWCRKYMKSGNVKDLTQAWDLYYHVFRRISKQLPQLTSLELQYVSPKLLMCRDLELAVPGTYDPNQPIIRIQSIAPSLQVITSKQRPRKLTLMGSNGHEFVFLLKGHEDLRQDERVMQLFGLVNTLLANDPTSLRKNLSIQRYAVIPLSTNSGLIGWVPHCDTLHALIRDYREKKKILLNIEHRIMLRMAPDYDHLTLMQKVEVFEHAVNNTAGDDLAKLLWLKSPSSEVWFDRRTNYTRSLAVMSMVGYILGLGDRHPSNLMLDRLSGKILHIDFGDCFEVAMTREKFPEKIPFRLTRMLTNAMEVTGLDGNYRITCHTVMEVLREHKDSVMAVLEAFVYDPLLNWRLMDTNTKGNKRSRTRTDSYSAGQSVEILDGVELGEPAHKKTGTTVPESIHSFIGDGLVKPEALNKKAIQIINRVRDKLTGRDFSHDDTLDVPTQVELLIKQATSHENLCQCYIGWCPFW
The assay used AlphaScreen technology (Gray et al., Analytical Biochemistry, 2003, 313: 234-245) to determine the ability of test compounds to inhibit phosphorylation by recombinant mTOR. […]
Each reaction was stopped by the addition of 10 μl of a mixture of EDTA (50 mM), bovine serum albumin (BSA; 0.5 mg/ml) and Tris-HCl pH7.4 buffer (50 mM) containing p70 S6 Kinase (T389) 1A5 Monoclonal Antibody (Cell Signalling Technology, Catalogue No. 9206B) and AlphaScreen Streptavidin donor and Protein A acceptor beads (200 ng; Perkin Elmer, Catalogue No. 6760002B and 6760137R respectively) were added and the assay plates were left for about 20 hours at room temperature in the dark. The resultant signals arising from laser light excitation at 680 nm were read using a Packard Envision instrument.
Phosphorylated biotinylated peptide is formed in situ as a result of mTOR mediated phosphorylation. […] Upon laser light excitation at 680 nm, the donor bead: acceptor bead complex produces a signal that can be measured. […]
mTOR enzyme inhibition for a given test compound was expressed as an IC50 value.
On the technique in general: Bead proximity is the source of the signal in Alpha formats.

A word on the IC50: it is the concentration that inhibits the measured activity by half.

T1 sequence (P42336 whole entry, canonical isoform): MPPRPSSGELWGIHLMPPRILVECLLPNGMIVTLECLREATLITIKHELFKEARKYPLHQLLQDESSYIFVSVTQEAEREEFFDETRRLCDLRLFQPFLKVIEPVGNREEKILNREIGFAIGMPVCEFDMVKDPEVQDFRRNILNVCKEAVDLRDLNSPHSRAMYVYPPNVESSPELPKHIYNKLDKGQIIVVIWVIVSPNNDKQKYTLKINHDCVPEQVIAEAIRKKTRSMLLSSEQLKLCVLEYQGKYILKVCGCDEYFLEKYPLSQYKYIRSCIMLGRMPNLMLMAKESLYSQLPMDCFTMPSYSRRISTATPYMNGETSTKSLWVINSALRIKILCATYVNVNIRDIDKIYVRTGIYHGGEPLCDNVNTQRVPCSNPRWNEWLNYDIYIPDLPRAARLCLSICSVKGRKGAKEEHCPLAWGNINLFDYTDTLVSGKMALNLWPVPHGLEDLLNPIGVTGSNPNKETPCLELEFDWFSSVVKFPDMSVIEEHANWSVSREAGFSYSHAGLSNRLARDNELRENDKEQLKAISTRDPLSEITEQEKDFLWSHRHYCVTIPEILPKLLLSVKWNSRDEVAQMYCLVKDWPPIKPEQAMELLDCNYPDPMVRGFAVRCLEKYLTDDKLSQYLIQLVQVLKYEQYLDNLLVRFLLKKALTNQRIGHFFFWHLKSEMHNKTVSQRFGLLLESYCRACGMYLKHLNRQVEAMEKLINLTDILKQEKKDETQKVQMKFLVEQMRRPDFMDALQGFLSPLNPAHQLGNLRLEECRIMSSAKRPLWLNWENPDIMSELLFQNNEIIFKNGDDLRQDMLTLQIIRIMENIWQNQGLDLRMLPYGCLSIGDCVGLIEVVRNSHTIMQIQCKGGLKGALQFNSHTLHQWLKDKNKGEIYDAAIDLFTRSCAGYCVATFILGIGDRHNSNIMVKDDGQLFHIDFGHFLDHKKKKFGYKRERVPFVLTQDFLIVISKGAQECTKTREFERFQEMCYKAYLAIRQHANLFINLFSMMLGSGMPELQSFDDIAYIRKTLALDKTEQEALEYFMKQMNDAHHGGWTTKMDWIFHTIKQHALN
T1 sequence (P27986 whole entry partner, canonical isoform): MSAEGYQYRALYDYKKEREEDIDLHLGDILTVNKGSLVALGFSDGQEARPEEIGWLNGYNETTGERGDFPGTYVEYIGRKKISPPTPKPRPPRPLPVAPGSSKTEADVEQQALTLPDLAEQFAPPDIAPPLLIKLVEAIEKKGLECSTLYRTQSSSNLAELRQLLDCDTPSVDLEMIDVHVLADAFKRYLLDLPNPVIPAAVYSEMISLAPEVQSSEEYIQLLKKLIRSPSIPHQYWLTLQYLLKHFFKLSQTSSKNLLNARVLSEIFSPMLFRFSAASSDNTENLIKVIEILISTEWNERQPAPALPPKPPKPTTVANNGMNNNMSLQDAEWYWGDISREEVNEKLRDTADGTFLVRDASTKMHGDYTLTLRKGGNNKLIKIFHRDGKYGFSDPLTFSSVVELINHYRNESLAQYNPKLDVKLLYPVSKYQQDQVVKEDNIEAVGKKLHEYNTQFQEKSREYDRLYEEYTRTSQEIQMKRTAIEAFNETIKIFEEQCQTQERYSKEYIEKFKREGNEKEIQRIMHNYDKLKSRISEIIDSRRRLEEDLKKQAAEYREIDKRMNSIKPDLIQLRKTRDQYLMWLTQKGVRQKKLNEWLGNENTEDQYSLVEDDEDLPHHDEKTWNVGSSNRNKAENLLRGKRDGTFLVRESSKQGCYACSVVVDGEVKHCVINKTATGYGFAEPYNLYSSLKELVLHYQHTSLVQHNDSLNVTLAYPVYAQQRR

Regarding `CC(=O)Nc1cc(-c2cncc(NS(C)(=O)=O)c2)n(C)n1` [Example 1, N-[5-(5-methanesulphonamidopyridin-3-yl)-1-methyl-1H-pyrazol-3-yl]acetamide], the IC50 on p110α Type Ia human PI3K was approximately 5 µM; in experiment [1], approximately 40 µM.
In the case of `CC(=O)Nc1cc(-c2cncc(NS(=O)(=O)c3c(C)nn(C)c3Cl)c2)n(C)n1` [Example 3, N-{5-[5-(5-chloro-1,3-dimethyl-1H-pyrazol-4-ylsulphonamido)pyridin-3-yl]-1-methyl-1H-pyrazol-3-yl}acetamide], the IC50 at p110α Type Ia human PI3K is approximately 0.5 µM; in experiment [1], approximately 2 µM.
